Results from patent publication US9376442B2, “Methylpyrrolopyrimidinecarboxamides” (Takeda GmbH, priority 2009, dated 2016).

Columns and labels:
[1] = target: T1, PDE5A1 (Homo sapiens, UniProt O76074); assay: Inhibition of type 5 phosphodiesterase (PDE5) activity, modified SPA test with human platelet lysate; type: biochemical; conditions: 0.5 μM cGMP, read-out: PDE5A1 inhibitory values [measured as −log IC50 (mol/l)] (converted)
T1 construct: from tissue; host or cells: human platelets from fresh donor blood (10,000 x g supernatant of sonicated lysate)
Method in brief: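 Scintillation proximity assay with [3H]cGMP tracer at 0.5 μM total cGMP, stopped after 15 min with beads containing IBMX. PDE3 and PDE2 activities suppressed with motapizone (1 μM) and a PDE2 inhibitor (10 nM). Human platelet supernatant served as the enzyme, with compound preincubated 5 min at 37° C; IC50 values from concentration-effect curves.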

[2] = target: T2, PDE4B1 (Homo sapiens, UniProt Q07343); assay: Inhibition of type 4 phosphodiesterase (PDE4) activity, modified SPA test with recombinant PDE4B1 expressed in SF21 insect cells; type: biochemical; conditions: recombinant PDE4B1, 0.5 μM cAMP, read-out: PDE4B1 inhibitory values [measured as −log IC50 (mol/l)] (converted)
T2 construct: made in house; host or cells: SF21 insect cells (baculovirus; pCRBac vector), 1000 x g supernatant of homogenate
T2 sequence (Q07343 whole entry): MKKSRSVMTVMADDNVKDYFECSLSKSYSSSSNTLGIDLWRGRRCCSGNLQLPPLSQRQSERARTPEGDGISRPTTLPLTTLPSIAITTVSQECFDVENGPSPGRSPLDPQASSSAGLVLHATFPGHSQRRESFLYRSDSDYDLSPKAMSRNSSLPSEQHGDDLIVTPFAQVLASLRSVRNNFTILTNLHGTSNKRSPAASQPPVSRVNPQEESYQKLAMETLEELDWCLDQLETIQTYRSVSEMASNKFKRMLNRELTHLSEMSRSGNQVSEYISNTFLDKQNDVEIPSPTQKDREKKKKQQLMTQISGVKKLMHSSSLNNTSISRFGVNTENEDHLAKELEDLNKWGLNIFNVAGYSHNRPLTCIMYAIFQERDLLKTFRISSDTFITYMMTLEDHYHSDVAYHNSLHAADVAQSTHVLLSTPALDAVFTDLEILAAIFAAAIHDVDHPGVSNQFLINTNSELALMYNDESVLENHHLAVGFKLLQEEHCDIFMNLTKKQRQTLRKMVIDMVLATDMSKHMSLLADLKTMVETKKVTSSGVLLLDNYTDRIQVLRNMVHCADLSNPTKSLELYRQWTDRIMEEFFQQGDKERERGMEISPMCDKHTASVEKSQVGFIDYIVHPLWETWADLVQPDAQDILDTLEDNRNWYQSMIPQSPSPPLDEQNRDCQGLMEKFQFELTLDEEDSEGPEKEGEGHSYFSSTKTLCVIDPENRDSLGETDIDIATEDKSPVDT
Method in brief: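 Modified [3H]cAMP SPA using 1000×g supernatant of SF21 cells expressing recombinant human PDE4B1, in 20 mM Tris pH 7.4, 0.1 mg/ml BSA, 5 mM Mg2+, 0.5 μM cAMP. After 5 min preincubation at 37 °C, 15 min reaction, stopped with SPA beads plus IBMX; IC50 by non-linear regression.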

Row | SMILES | IC50 [1] [µM] | IC50 [2] [µM]
1 | CC(=O)N[C@H]1CC[C@H](NC(=O)c2c(C)[nH]c3c(-c4cc(C(F)F)ccc4OCC4CC4)ncnc23)C[C@@H]1F (relative stereo) [Example P209, N-[(1S*,3S*,4S*)-4-(Acetylamino)-3-fluorocyclohexyl]-4-[2-(cyclopropylmethoxy)-5-(difluoromethyl)phenyl]-6-methyl-5H-pyrrolo[3,2-d]pyrimidine-7-carboxamide] | < 0.001 | < 0.1
2 | CC(=O)N[C@H]1CC[C@@H](NC(=O)c2c(C)[nH]c3c(-c4cc(F)ccc4OCC4CC4)ncnc23)CC1 [Example E45, N-(cis-4-acetamidocyclohexyl)-4-[2-(cyclopropylmethoxy)-5-fluorophenyl]-6-methyl-5H-pyrrolo[3,2-d]pyrimidine-7-carboxamide] | 0.001 to 0.01 | 0.1 to 1
3 | COCC(=O)N[C@H]1CC[C@H](NC(=O)c2c(C)[nH]c3c(-c4cc(F)ccc4OCC4CC4)ncnc23)CC1 [Example E43, 4-[2-(Cyclopropylmethoxy)-5-fluorophenyl]-N-{trans-4-[(methoxyacetyl)amino]cyclohexyl}-6-methyl-5H-pyrrolo[3,2-d]pyrimidine-7-carboxamide] | < 0.001 | < 0.1
4 | COCC(=O)N1CCC(NC(=O)c2c(C)[nH]c3c(-c4cc(C(F)F)ccc4OCC4CC4)ncnc23)CC1 [Example P3, 4-[2-(Cyclopropylmethoxy)-5-(difluoromethyl)phenyl]-N-[1-(methoxyacetyl)piperidin-4-yl]-6-methyl-5H-pyrrolo[3,2-d]pyrimidine-7-carboxamide] | 0.001 to 0.01 | < 0.1
5 | CC(=O)N1CCC(NC(=O)c2c(C)[nH]c3c(-c4cc(C(F)(F)F)ccc4OCC4CC4)ncnc23)CC1 [Example E90, N-(1-Acetylpiperidin-4-yl)-4-[2-(cyclopropylmethoxy)-5-(trifluoromethyl)phenyl]-6-methyl-5H-pyrrolo[3,2-d]pyrimidine-7-carboxamide] | < 0.001 | < 0.1
6 | CCc1ccc(OCC2CC2)c(-c2ncnc3c(C(=O)N[C@@H]4CN(C(=O)CO)C[C@H]4O)c(C)[nH]c23)c1 (relative stereo) [Example F97, 4-[2-(Cyclopropylmethoxy)-5-ethylphenyl]-N-[(3R*,4R*)-4-hydroxy-1-(hydroxyacetyl)pyrrolidin-3-yl]-6-methyl-5H-pyrrolo[3,2-d]pyrimidine-7-carboxamide] | 0.001 to 0.01 | 0.1 to 1
7 | COCC(=O)N[C@H]1CC[C@@H](NC(=O)c2c(C)[nH]c3c(-c4cc(OC)ccc4OCC4CC4)ncnc23)CC1 [Example E74, 4-[2-(Cyclopropylmethoxy)-5-methoxyphenyl]-N-{cis-4-[(methoxyacetyl)amino]cyclohexyl}-6-methyl-5H-pyrrolo[3,2-d]pyrimidine-7-carboxamide] | < 0.001 | 0.1 to 1
8 | CCc1ccc(OCC2CC2)c(-c2ncnc3c(C(=O)N[C@H]4CC[C@@H](NC(=O)COC)CC4)c(C)[nH]c23)c1 [Example E153, 4-[2-(Cyclopropylmethoxy)-5-ethylphenyl]-N-{cis-4-[(methoxyacetyl)amino]cyclohexyl}-6-methyl-5H-pyrrolo[3,2-d]pyrimidine-7-carboxamide] | < 0.001 | 0.1 to 1
9 | COCC(=O)N[C@H]1CC[C@H](NC(=O)c2c(C)[nH]c3c(-c4cc(C(C)C)ccc4OCC4CC4)ncnc23)CC1 [Example E160, 4-[2-(Cyclopropylmethoxy)-5-(propan-2-yl)phenyl]-N-{trans-4-[(methoxyacetyl)amino]cyclohexyl}-6-methyl-5H-pyrrolo[3,2-d]pyrimidine-7-carboxamide] | < 0.001 | 0.1 to 1
10 | COc1ccc(OCC2CC2)c(-c2ncnc3c(C(=O)N[C@H]4CC[C@@H](NC(C)=O)CC4)c(C)[nH]c23)c1 [Example E72, N-(cis-4-acetamidocyclohexyl)-4-[2-(cyclopropylmethoxy)-5-methoxyphenyl]-6-methyl-5H-pyrrolo[3,2-d]pyrimidine-7-carboxamide] | < 0.001 | 0.1 to 1
11 | CCC(=O)N[C@H]1CC[C@H](NC(=O)c2c(C)[nH]c3c(-c4cc(CC)ccc4OCC4CC4)ncnc23)CC1 [Example E149, 4-[2-(Cyclopropylmethoxy)-5-ethylphenyl]-6-methyl-N-[trans-4-(propanoylamino)cyclohexyl]-5H-pyrrolo[3,2-d]pyrimidine-7-carboxamide] | < 0.001 | < 0.1
12 | CC(=O)N[C@H]1CC[C@H](NC(=O)c2c(C)[nH]c3c(-c4cc(C)ccc4OCC4CC4)ncnc23)CC1 [Example E84, N-[trans-4-(acetylamino)cyclohexyl]-4-[2-(cyclopropylmethoxy)-5-methylphenyl]-6-methyl-5H-pyrrolo[3,2-d]pyrimidine-7-carboxamide] | < 0.001 | < 0.1
13 | COCC(=O)N[C@H]1CC[C@@H](NC(=O)c2c(C)[nH]c3c(-c4cc(C(F)(F)F)ccc4OCC4CC4)ncnc23)CC1 [Example E98, 4-[2-(Cyclopropylmethoxy)-5-(trifluoromethyl)phenyl]-N-{cis-4-[(methoxyacetyl)amino]cyclohexyl}-6-methyl-5H-pyrrolo[3,2-d]pyrimidine-7-carboxamide] | < 0.001 | < 0.1
14 | COCC(=O)N[C@H]1CC[C@H](NC(=O)c2c(C)[nH]c3c(-c4cc(C(F)F)ccc4OCC4CC4)ncnc23)[C@@H](C)C1 (relative stereo) [Example P141, 4-[2-(Cyclopropylmethoxy)-5-(difluoromethyl)phenyl]-N-{(1S*,2S*,4S*)-4-[(methoxyacetyl)amino]-2-methylcyclohexyl}-6-methyl-5H-pyrrolo[3,2-d]pyrimidine-7-carboxamide] | < 0.001 | < 0.1
15 | COCC(=O)N1CCC(NC(=O)c2c(C)[nH]c3c(-c4cc(F)ccc4OCC4CC4)ncnc23)CC1 [Example E39, 4-(2-Cyclopropylmethoxy-5-fluoro-phenyl)-6-methyl-5H-pyrrolo[3,2-d]pyrimidine-7-carboxylic acid [1-(2-methoxy-acetyl)-piperidin-4-yl]-amide] | 0.001 to 0.01 | 0.1 to 1
16 | CCC(=O)N[C@H]1CC[C@H](NC(=O)c2c(C)[nH]c3c(-c4cc(C(F)F)ccc4OCC4CC4)ncnc23)C[C@@H]1F (relative stereo) [Example P210, 4-[2-(Cyclopropylmethoxy)-5-(difluoromethyl)phenyl]-N-[(1S*,3S*,4S*)-3-fluoro-4-(propanoylamino)cyclohexyl]-6-methyl-5H-pyrrolo[3,2-d]pyrimidine-7-carboxamide] | < 0.001 | < 0.1
17 | Cc1[nH]c2c(-c3cc(F)ccc3OCC3CC3)ncnc2c1C(=O)NC1CCN(C(=O)[C@H](C)O)CC1 [Example F24, 4-(2-Cyclopropylmethoxy-5-fluoro-phenyl)-6-methyl-5H-pyrrolo[3,2-d]pyrimidine-7-carboxylic acid [1-((S)-2-hydroxy-propionyl)-piperidin-4-yl]-amide] | < 0.001 | 0.1 to 1
18 | Cc1[nH]c2c(-c3cc(C(C)C)ccc3OCC3CC3)ncnc2c1C(=O)NC1CCN(C(=O)[C@H](C)O)CC1 [Example F99, 4-[2-(Cyclopropylmethoxy)-5-(propan-2-yl)phenyl]-N-{1-[(2S)-2-hydroxypropanoyl]piperidin-4-yl}-6-methyl-5H-pyrrolo[3,2-d]pyrimidine-7-carboxamide] | < 0.001 | 0.1 to 1
19 | CCC(=O)N[C@H]1CC[C@@H](NC(=O)c2c(C)[nH]c3c(-c4cc(C(F)(F)F)ccc4OCC4CC4)ncnc23)CC1 [Example E97, 4-[2-(Cyclopropylmethoxy)-5-(trifluoromethyl)phenyl]-6-methyl-N-[cis-4-(propanoylamino)cyclohexyl]-5H-pyrrolo[3,2-d]pyrimidine-7-carboxamide] | < 0.001 | < 0.1
20 | CCc1ccc(OCC2CC2)c(-c2ncnc3c(C(=O)N[C@H]4CC[C@@H](NC(=O)CO)CC4)c(C)[nH]c23)c1 [Example F95, 4-[2-(Cyclopropylmethoxy)-5-ethylphenyl]-N-{cis-4-[(hydroxyacetyl)amino]cyclohexyl}-6-methyl-5H-pyrrolo[3,2-d]pyrimidine-7-carboxamide] | < 0.001 | < 0.1
21 | COCC(=O)N[C@H]1CC[C@@H](NC(=O)c2c(C)[nH]c3c(-c4cc(C)ccc4OCC4CC4)ncnc23)CC1 [Example E89, 4-[2-(Cyclopropylmethoxy)-5-methylphenyl]-N-{cis-4-[(methoxyacetyl)amino]cyclohexyl}-6-methyl-5H-pyrrolo[3,2-d]pyrimidine-7-carboxamide] | < 0.001 | < 0.1
22 | CCC(=O)N[C@H]1CC[C@H](NC(=O)c2c(C)[nH]c3c(-c4cc(OC)ccc4OCC4CC4)ncnc23)CC1 [Example E70, 4-[2-(Cyclopropylmethoxy)-5-methoxyphenyl]-6-methyl-N-[trans-4-(propionylamino)cyclohexyl]-5H-pyrrolo[3,2-d]pyrimidine-7-carboxamide] | < 0.001 | 0.1 to 1
23 | COc1ccc(OCC2CC2)c(-c2ncnc3c(C(=O)NC4CCN(C(=O)CO)CC4)c(C)[nH]c23)c1 [Example F41, 4-[2-(Cyclopropylmethoxy)-5-methoxyphenyl]-N-(1-glycoloylpiperidin-4-yl)-6-methyl-5H-pyrrolo[3,2-d]pyrimidine-7-carboxamide] | < 0.001 | 0.1 to 1
